{"source": "paper PMC4926433", "about": "“Isoquercitrin Esters with Mono- or Dicarboxylic Acids: Enzymatic Preparation and Properties” (International Journal of Molecular Sciences, 2016)", "key": {"[1]": {"test": "Folin–Ciocalteau reduction (FCR) assay, reducing capacity", "type": "biochemical", "conditions": "gallic acid equivalents; mean ± SE", "procedure": "Folin-Ciocalteu assay, commonly known as the total phenols assay, determines a sample reducing capacity. FCR contains heteropolyphosphotunstate-molybdates, which are reduced in aqueous milieu at pH ≈ 10 to blue species, presumably (PMoW11O40)^4- [29]. […] This is probably related to high hydrophobicity of these derivatives. Reducing capacity was evaluated using Folin-Ciocalteau reagent with minor modifications as described previously."}, "[2]": {"test": "ABTS radical cation scavenging (Antioxidant Assay Kit)", "type": "biochemical", "conditions": "Trolox equivalents; aqueous buffer pH 5; mean ± SE", "procedure": "Determination of ABTS scavenging activity involves an electron-transfer reaction. […] The capacity to scavenge the radical cation (ABTS^·) was evaluated using the Antioxidant Assay Kit (CS0790, Sigma-Aldrich, Prague, Czech Republic) and expressed as Trolox equivalents (TE) from the Trolox calibration curve."}, "[3]": {"test": "Partition coefficient (log P) in octan-1-ol/phosphate buffer pH 7.4", "conditions": "for Partition Coefficient: octan-1-ol/6.6 mM phosphate buffer pH 7.4, 25 °C, mean ± SD, triplicate; for logP: octan-1-ol / 6.6 mM phosphate buffer pH 7.4, pH 7.4", "procedure": "The hydrophobicity of the prepared compounds was determined by the measurement of partition coefficient P in a mixture of two immiscible phases—octan-1-ol and 6.6 mM phosphate buffer pH 7.4 to simulate physiological conditions. Before the use, octan-1-ol was stirred with the buffer for 16 h at 25 °C to achieve saturation of both phases, which were then separated.\nThen, 150 µL of the stock solutions were mixed with 150 µL of the respective immiscible phase in microcentrifuge tubes (1.5 mL) and stirred (750 rpm) for 2 h at 25 °C in triplicates. Phases were separated and the solute concentration in each phase was determined in 96-well microtitration plates using Sunrise™ spectrophotometer (Schoeller Instruments, Prague, Czech Republic) at 400 nm. Log P was calculated as follows: log Poct/buffer = log([A]octan-1-ol/[A]buffer)."}, "[4]": {"test": "DPPH radical scavenging assay", "type": "biochemical", "conditions": "methanol, DPPH 20 µM, 30 min; mean ± SE", "procedure": "When reduced, the solution decolorizes in proportion to the strength and concentration of the antiradical compound tested. The results of this test are usually expressed as the concentration of the compound that reduces 50% of the radical (IC50, Table 1). […] However, no clear relationship between the carboxylic chain length and DPPH radical scavenging activity could be established. Antiradical activity was evaluated spectrophotometrically as the ability of the substances to reduce the DPPH radical as described previously with minor modifications."}, "[5]": {"system": "rat liver microsomal membranes", "test": "Inhibition of microsomal lipid peroxidation induced by tert-butyl hydroperoxide (TBARS)", "type": "biochemical", "conditions": "for IC50: male rat liver microsomes, tert-butylhydroperoxide 1 mM, 37 °C, 30 min, TBARS, mean ± SE, read-out: Lpx (IC50; µM)", "source_text": "Lipid peroxidation is a type of oxidative degradation of lipids caused by free radicals in cell membranes, resulting in cell damage. The most notable initiators of this chain reaction in living cells are reactive oxygen species (ROS), such as OH· and HO2·, which combine with a hydrogen atom to make water and a fatty acid radical. We used tert-butyl hydroperoxide, a relatively stable organic peroxide, as initiator of peroxidation of rat liver microsomal membranes. The inhibition of this reaction depends not only on the free radical scavenging capacity, but also on the capacity of these compounds to interact with and penetrate lipid bilayers. Isoquercitrin derivatives differed considerably in their capacity to inhibit the peroxidation of microsomal membranes. […] A similar trend, e.g., improving the activity in medium chain derivatives with subsequent drop for longer chain esters, was reported for anti-proliferative activity of IQ monocarboxylic acid esters on the growth of tumoral Caco2 cells, and also for the inhibition of tyrosinase activity.\nPooled microsomes from male rat livers (M9066, Sigma-Aldrich, Prague, Czech Republic) were washed five times using centrifugation and phosphate-buffered saline (PBS, 13,500 rpm, 5 min, 4 °C) to remove sucrose. In addition, 400 µL of the diluted microsomal suspension (0.625 mg protein/mL in PBS), the compounds tested in 50 µL of dimethyl sulfoxide (DMSO, final concentration 5–2000 µM) and 50 µL of tert-butylhydroperoxide in PBS (final concentration 1 mM) were mixed and incubated at 37 °C for 30 min. Determination of lipid peroxidation products as thiobarbituric acid reactive substances (TBARS) and calculation of the IC50 values were performed as described previously."}, "[6]": {"conditions": "50 °C, cited from earlier work"}, "[7]": {"test": "Solubility in water", "type": "physicochemical", "conditions": "pH = 6.5, isoquercitrin purity 96.5%", "source_text": "The hydrophilicity/lipophilicity of a compound is often crucial for assessing its bioavailability. Flavonoids are generally poorly soluble in water; aqueous solubility increases at alkaline pH as phenols are weak acids. […] [15])."}, "[8]": {"conditions": "pH not given; cited from earlier work"}}, "note": "Values joined by “and” are separate entries in the source; they are usually repeats but may differ in a detail not shown here. Equal values may be shown once. Marks after values point to notes of the source that are not given here.", "data": [{"molecule": "C[C@@H]1O[C@@H](OC[C@H]2O[C@@H](Oc3c(-c4ccc(O)c(O)c4)oc4cc(O)cc(O)c4c3=O)[C@H](O)[C@@H](O)[C@@H]2O)[C@H](O)[C@H](O)[C@H]1O", "note": "[Rutin, quercetin-3-O-[α-L-rhamnopyranosyl-(1→6)-β-D-glucopyranose], reference compound]", "values": [{"measurement": "FCR (GAE)", "setting": "[1]", "value": "2.19 ± 0.10", "unit": "GAE"}, {"measurement": "ABTS (TE)", "setting": "[2]", "value": "1.79 ± 0.09", "unit": "TE"}, {"measurement": "Partition Coefficient", "setting": "[3]", "value": "0.41 ± 0.01"}, {"measurement": "IC50", "setting": "[4]", "value": "3.66 ± 0.39", "unit": "µM"}, {"measurement": "IC50", "setting": "[5]", "value": "202 ± 8", "unit": "µM"}]}, {"molecule": "((2R,3S,4R,5R,6S)-3-Acetoxy-6-((2-(3,4-dihydroxyphenyl)-5,7-dihydroxy-4-oxo-4H-chromen-3-yl)oxy)-4,5-dihydroxytetrahydro-2H-pyran-2-yl)methyl acetate [Compound 3]", "values": [{"measurement": "FCR (GAE)", "setting": "[1]", "value": "1.67 ± 0.11 ^b GAE"}, {"measurement": "ABTS (TE)", "setting": "[2]", "value": "1.56 ± 0.04", "unit": "TE"}, {"measurement": "log P", "setting": "[3]; pH 7.4", "value": 1.59}, {"measurement": "IC50", "setting": "[4]", "value": "2.15 ± 0.04", "unit": "µM"}, {"measurement": "IC50", "setting": "[5]", "value": "433 ± 19", "unit": "µM"}]}, {"molecule": "O=c1c(O[C@@H]2O[C@H](CO)[C@@H](O)[C@H](O)[C@H]2O)c(-c2ccc(O)c(O)c2)oc2cc(O)cc(O)c12", "note": "[Compound 1, quercetin-3-O-β-D-glucopyranoside, reference compound]", "values": [{"measurement": "solubility in acetone", "setting": "[6]; acetone", "value": 14000, "unit": "µg/mL"}, {"measurement": "solubility in acetonitrile", "setting": "[6]; acetonitrile", "value": 1800, "unit": "µg/mL"}, {"measurement": "solubility in tert-amyl alcohol", "setting": "[6]; tert-amyl alcohol", "value": 30000, "unit": "µg/mL"}, {"measurement": "FCR (GAE)", "setting": "[1]", "value": "1.84 GAE and 1.84 ± 0.04 ^a GAE"}, {"measurement": "ABTS (TE)", "setting": "[2]", "value": "1.97 TE and 1.97 ± 0.06 ^i TE"}, {"measurement": "solubility", "setting": "[7]", "value": 360, "unit": "µg/mL"}, {"measurement": "solubility in water", "setting": "[8]", "value": 95, "unit": "µg/mL"}, {"measurement": "IC50", "setting": "[4]", "value": "1.4 ± 0.06", "unit": "µM"}, {"measurement": "IC50", "setting": "[5]", "value": "972 ± 11", "unit": "µM"}]}, {"molecule": "CC(=O)OC[C@H]1O[C@@H](Oc2c(-c3ccc(O)c(O)c3)oc3cc(O)cc(O)c3c2=O)[C@H](O)[C@@H](O)[C@@H]1O", "note": "[Compound 2, ((2R,3S,4S,5R,6S)-6-((2-(3,4-Dihydroxyphenyl)-5,7-dihydroxy-4-oxo-4H-chromen-3-yl)oxy)-3,4,5-trihydroxytetrahydro-2H-pyran-2-yl)methyl acetate]", "values": [{"measurement": "FCR (GAE)", "setting": "[1]", "value": "1.63 ± 0.07 ^b GAE"}, {"measurement": "ABTS (TE)", "setting": "[2]", "value": "2.04 ± 0.07 ^i TE"}, {"measurement": "logP", "setting": "[3]", "value": 1.14}, {"measurement": "Partition Coefficient", "setting": "[3]", "value": "13.76 ± 0.01"}, {"measurement": "IC50", "setting": "[4]", "value": "2.51 ± 0.1", "unit": "µM"}, {"measurement": "IC50", "setting": "[5]", "value": "42 ± 2.1", "unit": "µM"}, {"measurement": "fold more active than IQ in inhibition of microsomal lipid peroxidation", "setting": "[5]; ratio of Lpx IC50 values relative to IQ (1)", "value": 23, "unit": "×"}]}, {"molecule": "CCCCCC(=O)OC[C@H]1O[C@@H](Oc2c(-c3ccc(O)c(O)c3)oc3cc(O)cc(O)c3c2=O)[C@H](O)[C@@H](O)[C@@H]1O", "note": "[Compound 5, ((2R,3S,4S,5R,6S)-6-((2-(3,4-Dihydroxyphenyl)-5,7-dihydroxy-4-oxo-4H-chromen-3-yl)oxy)-3,4,5-trihydroxytetrahydro-2H-pyran-2-yl)methyl hexanoate]", "values": [{"measurement": "FCR (GAE)", "setting": "[1]", "value": "1.48 ± 0.05 ^b GAE"}, {"measurement": "ABTS (TE)", "setting": "[2]", "value": "2.11 ± 0.09 ^i TE"}, {"measurement": "logP", "setting": "[3]", "value": 2.1}, {"measurement": "Partition Coefficient", "setting": "[3]", "value": "126.43 ± 0.01"}, {"measurement": "IC50", "setting": "[4]", "value": "3.07 ± 0.1", "unit": "µM"}, {"measurement": "IC50", "setting": "[5]", "value": "20 µM and 19.7 µM"}]}, {"molecule": "O=C(O)CCCCCCCCCCC(=O)OC[C@H]1O[C@@H](Oc2c(-c3ccc(O)c(O)c3)oc3cc(O)cc(O)c3c2=O)[C@H](O)[C@@H](O)[C@@H]1O", "note": "[Compound 11, 12-(((2R,3S,4S,5R,6S)-6-((2-(3,4-Dihydroxyphenyl)-5,7-dihydroxy-4-oxo-4H-chromen-3-yl)oxy)-3,4,5-trihydroxytetrahydro-2H-pyran-2-yl)methoxy)-12-oxododecanoic acid]", "values": [{"measurement": "FCR (GAE)", "setting": "[1]", "value": "1.58 GAE and 1.58 ± 0.05 ^b GAE"}, {"measurement": "ABTS (TE)", "setting": "[2]", "value": "2.16 ± 0.08 ^i TE"}, {"measurement": "logP", "setting": "[3]", "value": 0.48}, {"measurement": "Partition Coefficient", "setting": "[3]", "value": "3.00 ± 0.03"}, {"measurement": "IC50", "setting": "[4]", "value": "2.97 ± 0.22", "unit": "µM"}, {"measurement": "IC50", "setting": "[5]", "value": "33 µM and 32.5 µM"}]}]}
